From US7851650B2, “Compounds for treating inflammation and pain” (Olatec Industries LLC, priority 2009, dated 2010)

Tested on: arachidonic acid induced ear swelling
Assay: topical arachidonic acid induced ear swelling model in mice
Format: in vivo
Details: male ICR mice, applied 30 min before and 15 min after arachidonic acid, active compound 2 mg/ear x 2, indomethacin 3 mg/ear x 2, relative to lauryl lactate vehicle
Procedure: Male ICR mice weighing 22±2 g were used in the experiment. Arachidonic acid (2 mg in 20 μL acetone) was applied topically onto the anterior and posterior surfaces of the right ear of test animals. […] Ear swelling was then measured using a Dyer model micrometer gauge at 60, 90 and 120 minutes after arachidonic acid induction of ear edema as an index of inflammation.

SMILES | %, ear swelling inhibition after arachidonic acid, 60 min. [%] | %, ear swelling inhibition after arachidonic acid, 90 min. [%] | %, ear swelling inhibition after arachidonic acid, 120 min. [%]
CS(=O)(=O)CCC(NCl)C(=O)O (stereo not drawn) [Active compound/lauryl lactate, 2-N chloro-4-methylsulfonyl-butyric acid] | 33 | 31 | 34
COc1ccc2c(c1)c(CC(=O)O)c(C)n2C(=O)c1ccc(Cl)cc1 [Indomethacin/lauryl lactate, indomethacin] | 71 | 65 | 70
